Measured values: the NIST ThermoML archive (doi:10.1016/j.tca.2018.07.026)
“And” between values parts separate entries of the source, which are not always exact repeats. Equal values may be shown once. ± gives the expanded uncertainty stated by the source.

Key:
[1] = Molar enthalpy of transition or fusion; details: Crystal; DSC
[2] = for vapor or sublimation pressure: Liquid, Transpiration method
[3] = molar heat capacity at constant pressure; details: 101.33 kPa, Crystal, DSC

N#Cc1cccc2ccccc12 [1-cyanonaphthalene]
Molar enthalpy of transition or fusion [1]: 4.16 ± 0.143 kcal/mol | vapor or sublimation pressure ([2]; 317.4 K): 0.00232 ± 0.00011 kPa | vapor or sublimation pressure ([2]; 321.3 K): 0.00324 ± 0.00015 kPa | vapor or sublimation pressure ([2]; 323.2 K): 0.00381 ± 0.00018 kPa | vapor or sublimation pressure ([2]; 326.3 K): 0.00461 ± 0.00021 kPa | vapor or sublimation pressure ([2]; 328.2 K): 0.00556 ± 0.00027 kPa | vapor or sublimation pressure ([2]; 331.2 K): 0.00702 ± 0.00033 kPa | vapor or sublimation pressure ([2]; 333.3 K): 0.00785 ± 0.00037 kPa | vapor or sublimation pressure ([2]; 335.2 K): 0.00943 ± 0.00045 kPa | vapor or sublimation pressure ([2]; 338.2 K): 0.0116 ± 0.0005 kPa | vapor or sublimation pressure ([2]; 340.2 K): 0.01358 ± 0.00064 kPa | vapor or sublimation pressure ([2]; 343.2 K): 0.01719 ± 0.00079 kPa | vapor or sublimation pressure ([2]; 345.1 K): 0.01921 ± 0.00089 kPa | vapor or sublimation pressure ([2]; 348.1 K): 0.02329 ± 0.0011 kPa | vapor or sublimation pressure ([2]; 351.1 K): 0.02893 ± 0.0013 kPa | vapor or sublimation pressure ([2]; 353.2 K): 0.03229 ± 0.0014 kPa | Normal melting temperature ([2]; Crystal, DTA): 34 ± 1.3 °C | molar heat capacity at constant pressure ([3]; 268.9 K): 144.7 ± 30 J/K/mol and 156.8 ± 32 J/K/mol | molar heat capacity at constant pressure ([3]; 269.3 K): 148.8 ± 30 J/K/mol and 159.1 ± 32 J/K/mol | molar heat capacity at constant pressure ([3]; 269.7 K): 152.4 ± 31 J/K/mol and 161.1 ± 33 J/K/mol | molar heat capacity at constant pressure ([3]; 270.1 K): 155.6 ± 32 J/K/mol and 162.6 ± 33 J/K/mol | molar heat capacity at constant pressure ([3]; 270.5 K): 158.2 ± 32 J/K/mol and 164.1 ± 33 J/K/mol | molar heat capacity at constant pressure ([3]; 270.9 K): 160.6 ± 33 J/K/mol and 165.4 ± 34 J/K/mol | molar heat capacity at constant pressure ([3]; 271.3 K): 162.5 ± 33 J/K/mol and 166.5 ± 34 J/K/mol | molar heat capacity at constant pressure ([3]; 271.7 K): 164.3 ± 33 J/K/mol and 167.5 ± 34 J/K/mol | molar heat capacity at constant pressure ([3]; 272.1 K): 168.4 ± 34 J/K/mol and 165.9 ± 34 J/K/mol | molar heat capacity at constant pressure ([3]; 272.5 K): 169.2 ± 34 J/K/mol and 167.2 ± 34 J/K/mol | molar heat capacity at constant pressure ([3]; 272.9 K): 168.6 ± 34 J/K/mol and 170 ± 34 J/K/mol | molar heat capacity at constant pressure ([3]; 273.3 K): 169.6 ± 34 J/K/mol and 170.8 ± 35 J/K/mol | molar heat capacity at constant pressure ([3]; 273.6 K): 170.5 ± 35 J/K/mol and 171.4 ± 35 J/K/mol | molar heat capacity at constant pressure ([3]; 274 K): 171.5 ± 35 J/K/mol and 172.1 ± 35 J/K/mol | molar heat capacity at constant pressure ([3]; 274.4 K): 172.1 ± 35 J/K/mol and 172.7 ± 35 J/K/mol | molar heat capacity at constant pressure ([3]; 274.8 K): 172.9 ± 35 J/K/mol and 173.4 ± 35 J/K/mol | molar heat capacity at constant pressure ([3]; 275.2 K): 173.5 ± 35 J/K/mol and 173.9 ± 35 J/K/mol | molar heat capacity at constant pressure ([3]; 275.5 K): 174.2 ± 35 J/K/mol and 174.4 ± 35 J/K/mol | molar heat capacity at constant pressure ([3]; 275.9 K): 174.6 ± 36 J/K/mol and 174.9 ± 36 J/K/mol | molar heat capacity at constant pressure ([3]; 276.3 K): 175.1 ± 36 J/K/mol and 175.4 ± 36 J/K/mol | molar heat capacity at constant pressure ([3]; 276.7 K): 175.5 ± 36 J/K/mol and 175.6 ± 36 J/K/mol | molar heat capacity at constant pressure ([3]; 277 K): 175.9 ± 36 J/K/mol | molar heat capacity at constant pressure ([3]; 277.1 K): 175.7 ± 36 J/K/mol | molar heat capacity at constant pressure ([3]; 277.4 K): 176 ± 36 J/K/mol and 176.3 ± 36 J/K/mol | molar heat capacity at constant pressure ([3]; 277.8 K): 176.2 ± 36 J/K/mol and 176.6 ± 36 J/K/mol | molar heat capacity at constant pressure ([3]; 278.2 K): 177 ± 36 J/K/mol and 176.6 ± 36 J/K/mol | molar heat capacity at constant pressure ([3]; 278.5 K): 177.5 ± 36 J/K/mol and 177.1 ± 36 J/K/mol | molar heat capacity at constant pressure ([3]; 278.9 K): 177.9 ± 36 J/K/mol and 177.6 ± 36 J/K/mol | molar heat capacity at constant pressure ([3]; 279.3 K): 178.4 ± 36 J/K/mol and 178.1 ± 36 J/K/mol | molar heat capacity at constant pressure ([3]; 279.6 K): 179 ± 36 J/K/mol and 178.7 ± 36 J/K/mol | molar heat capacity at constant pressure ([3]; 280 K): 179.6 ± 36 J/K/mol and 179.5 ± 36 J/K/mol | molar heat capacity at constant pressure ([3]; 280.4 K): 180.4 ± 37 J/K/mol and 180.3 ± 37 J/K/mol | molar heat capacity at constant pressure ([3]; 280.7 K): 181.1 ± 37 J/K/mol | molar heat capacity at constant pressure ([3]; 280.8 K): 181.2 ± 37 J/K/mol | molar heat capacity at constant pressure ([3]; 281.1 K): 181.9 ± 37 J/K/mol and 182 ± 37 J/K/mol | molar heat capacity at constant pressure ([3]; 281.5 K): 182.8 ± 37 J/K/mol and 182.9 ± 37 J/K/mol | molar heat capacity at constant pressure ([3]; 281.8 K): 183.7 ± 37 J/K/mol | molar heat capacity at constant pressure ([3]; 281.9 K): 183.8 ± 37 J/K/mol | molar heat capacity at constant pressure ([3]; 282.2 K): 184.7 ± 38 J/K/mol and 184.8 ± 38 J/K/mol | molar heat capacity at constant pressure ([3]; 282.6 K): 185.7 ± 38 J/K/mol and 185.8 ± 38 J/K/mol | molar heat capacity at constant pressure ([3]; 282.9 K): 186.7 ± 38 J/K/mol and 186.6 ± 38 J/K/mol | molar heat capacity at constant pressure ([3]; 283.3 K): 187.9 ± 38 J/K/mol and 187.6 ± 38 J/K/mol | molar heat capacity at constant pressure ([3]; 283.7 K): 188.9 ± 38 J/K/mol and 188.4 ± 38 J/K/mol | molar heat capacity at constant pressure ([3]; 284 K): 190 ± 39 J/K/mol and 189 ± 38 J/K/mol | molar heat capacity at constant pressure ([3]; 284.4 K): 190.9 ± 39 J/K/mol and 189.8 ± 38 J/K/mol | molar heat capacity at constant pressure ([3]; 284.8 K): 191.7 ± 39 J/K/mol and 190.3 ± 39 J/K/mol | molar heat capacity at constant pressure ([3]; 285.1 K): 192.3 ± 39 J/K/mol and 190.7 ± 39 J/K/mol | molar heat capacity at constant pressure ([3]; 285.5 K): 192.8 ± 39 J/K/mol and 191 ± 39 J/K/mol | molar heat capacity at constant pressure ([3]; 285.9 K): 193.1 ± 39 J/K/mol and 191.4 ± 39 J/K/mol | molar heat capacity at constant pressure ([3]; 286.2 K): 193.2 ± 39 J/K/mol and 191.6 ± 39 J/K/mol | molar heat capacity at constant pressure ([3]; 286.6 K): 193.3 ± 39 J/K/mol and 191.7 ± 39 J/K/mol | molar heat capacity at constant pressure ([3]; 286.9 K): 193.2 ± 39 J/K/mol and 192 ± 39 J/K/mol | molar heat capacity at constant pressure ([3]; 287.3 K): 193.3 ± 39 J/K/mol and 192.4 ± 39 J/K/mol | molar heat capacity at constant pressure ([3]; 287.7 K): 193.2 ± 39 J/K/mol and 192.6 ± 39 J/K/mol | molar heat capacity at constant pressure ([3]; 288 K): 193 ± 39 J/K/mol | molar heat capacity at constant pressure ([3]; 288.4 K): 192.8 ± 39 J/K/mol and 193.1 ± 39 J/K/mol | molar heat capacity at constant pressure ([3]; 288.8 K): 192.4 ± 39 J/K/mol and 193.1 ± 39 J/K/mol | molar heat capacity at constant pressure ([3]; 289.1 K): 192.1 ± 39 J/K/mol and 193.1 ± 39 J/K/mol | molar heat capacity at constant pressure ([3]; 289.5 K): 191.7 ± 39 J/K/mol and 193.1 ± 39 J/K/mol | molar heat capacity at constant pressure ([3]; 289.8 K): 191.4 ± 39 J/K/mol and 193.1 ± 39 J/K/mol | molar heat capacity at constant pressure ([3]; 290.2 K): 191.3 ± 39 J/K/mol and 193 ± 39 J/K/mol | molar heat capacity at constant pressure ([3]; 290.6 K): 191.3 ± 39 J/K/mol and 192.9 ± 39 J/K/mol | molar heat capacity at constant pressure ([3]; 290.9 K): 191.6 ± 39 J/K/mol and 192.9 ± 39 J/K/mol | molar heat capacity at constant pressure ([3]; 291.3 K): 191.9 ± 39 J/K/mol and 192.9 ± 39 J/K/mol | molar heat capacity at constant pressure ([3]; 291.7 K): 192.2 ± 39 J/K/mol and 193.1 ± 39 J/K/mol | molar heat capacity at constant pressure ([3]; 292 K): 192.7 ± 39 J/K/mol and 193.5 ± 39 J/K/mol | molar heat capacity at constant pressure ([3]; 292.4 K): 193.3 ± 39 J/K/mol and 193.6 ± 39 J/K/mol | molar heat capacity at constant pressure ([3]; 292.8 K): 193.8 ± 39 J/K/mol and 194.2 ± 39 J/K/mol | molar heat capacity at constant pressure ([3]; 293.1 K): 194.5 ± 40 J/K/mol and 194.6 ± 40 J/K/mol | molar heat capacity at constant pressure ([3]; 293.5 K): 195.3 ± 40 J/K/mol and 195.4 ± 40 J/K/mol | molar heat capacity at constant pressure ([3]; 293.8 K): 196.1 ± 40 J/K/mol | molar heat capacity at constant pressure ([3]; 294.2 K): 196.8 ± 40 J/K/mol and 196.7 ± 40 J/K/mol | molar heat capacity at constant pressure ([3]; 294.6 K): 197.8 ± 40 J/K/mol and 197.4 ± 40 J/K/mol | molar heat capacity at constant pressure ([3]; 294.9 K): 198.7 ± 40 J/K/mol and 198.1 ± 40 J/K/mol | molar heat capacity at constant pressure ([3]; 295.3 K): 199.6 ± 40 J/K/mol and 198.9 ± 40 J/K/mol | molar heat capacity at constant pressure ([3]; 295.7 K): 200.6 ± 41 J/K/mol and 199.8 ± 41 J/K/mol | molar heat capacity at constant pressure ([3]; 296 K): 201.6 ± 41 J/K/mol and 200.6 ± 41 J/K/mol | molar heat capacity at constant pressure ([3]; 296.4 K): 202.5 ± 41 J/K/mol and 201.7 ± 41 J/K/mol | molar heat capacity at constant pressure ([3]; 296.8 K): 203.6 ± 41 J/K/mol and 202.9 ± 41 J/K/mol
